The source made the active and inactive calls. No cut-off for these calls is given here.
Experiments:
[1] = system: Staphylococcus aureus; experiment: Antimicrobial activity against methicillin- resistant Staphylococcus aureus JE2 upto 256 microg/ml incubated for 20 hrs by resazurin staining based microtiter plate reader analysis; type: functional, organism-based; conditions: dose <= 256.0 µg/ml
[2] = system: HEK293; experiment: Cytotoxicity against HEK293 cells assessed as reduction in cell viability upto 64 ug/mL measured after 20 hrs by XTT assay; type: toxicity, cell-based; conditions: human, hek293, 20 h, dose < 64 µg/ml
[3] = biological target: Ubiquitin carboxyl-terminal hydrolase isozyme L1 (Homo sapiens) (UniProt P09936); experiment: Inhibition of human UCHL1 at 35 uM relative to control
[4] = biological target: Ubiquitin carboxyl-terminal hydrolase 7 (Homo sapiens) (UniProt Q93009); experiment: Inhibition of human USP7 at 35 uM relative to control
Ubiquitin carboxyl-terminal hydrolase 7 (Homo sapiens), sequence (Q93009 whole entry, looked up): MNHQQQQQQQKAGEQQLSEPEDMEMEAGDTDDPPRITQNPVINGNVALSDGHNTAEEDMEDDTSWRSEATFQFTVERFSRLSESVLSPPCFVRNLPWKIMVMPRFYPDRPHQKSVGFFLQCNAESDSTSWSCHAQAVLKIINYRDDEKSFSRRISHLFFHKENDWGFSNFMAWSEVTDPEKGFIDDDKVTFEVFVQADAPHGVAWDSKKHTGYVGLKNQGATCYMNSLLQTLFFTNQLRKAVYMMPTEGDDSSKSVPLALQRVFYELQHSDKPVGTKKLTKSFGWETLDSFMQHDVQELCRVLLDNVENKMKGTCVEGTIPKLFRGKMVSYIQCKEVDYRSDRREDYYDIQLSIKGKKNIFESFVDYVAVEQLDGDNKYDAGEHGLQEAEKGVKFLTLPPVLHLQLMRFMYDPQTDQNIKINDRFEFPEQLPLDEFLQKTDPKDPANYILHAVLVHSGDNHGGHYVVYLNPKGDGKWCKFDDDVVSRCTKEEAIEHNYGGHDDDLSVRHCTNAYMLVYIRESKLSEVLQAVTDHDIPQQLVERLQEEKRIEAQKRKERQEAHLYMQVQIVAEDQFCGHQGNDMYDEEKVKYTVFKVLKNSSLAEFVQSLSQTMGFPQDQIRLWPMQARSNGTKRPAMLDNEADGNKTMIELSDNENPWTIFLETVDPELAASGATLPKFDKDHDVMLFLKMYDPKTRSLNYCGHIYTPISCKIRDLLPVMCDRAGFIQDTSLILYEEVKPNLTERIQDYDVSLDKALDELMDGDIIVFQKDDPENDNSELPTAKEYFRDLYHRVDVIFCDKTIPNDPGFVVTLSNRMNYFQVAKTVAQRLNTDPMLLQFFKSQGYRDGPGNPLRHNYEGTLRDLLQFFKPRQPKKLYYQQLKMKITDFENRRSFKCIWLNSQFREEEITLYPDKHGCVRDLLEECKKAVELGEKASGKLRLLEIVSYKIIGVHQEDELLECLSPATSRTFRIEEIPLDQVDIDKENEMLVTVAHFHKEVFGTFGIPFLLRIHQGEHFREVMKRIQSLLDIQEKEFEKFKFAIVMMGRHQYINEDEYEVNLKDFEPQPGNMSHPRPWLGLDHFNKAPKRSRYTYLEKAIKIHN

Ubiquitin carboxyl-terminal hydrolase isozyme L1 (Homo sapiens), sequence (P09936 whole entry, looked up): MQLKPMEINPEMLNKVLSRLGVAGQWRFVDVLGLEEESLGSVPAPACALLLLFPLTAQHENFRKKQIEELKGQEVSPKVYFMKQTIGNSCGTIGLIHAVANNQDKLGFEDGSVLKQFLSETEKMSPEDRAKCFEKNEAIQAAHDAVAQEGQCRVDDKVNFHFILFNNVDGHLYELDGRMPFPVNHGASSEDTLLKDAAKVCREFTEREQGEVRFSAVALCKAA

SMILES: N#Cc1nccc(C(=O)NCc2nn(C(=O)Cc3ccccc3)c3ccccc23)n1
- Activity [1]: inactive
- Activity [2]: Non-toxic
- inhibition [3]: < 25%
- inhibition [4]: < 25%

From ChEMBL document CHEMBL6103628, “Structural Optimization of Covalent Inhibitors for Deubiquitinase ChlaDUB1 of Chlamydia trachomatis as Antibiotic Agents” (J Med Chem, 2025)
